{"source": "patent US6458838B1", "about": "“Adrenoleukodystrophy treatments” (Johns Hopkins University, priority 1999, dated 2002)", "key": {"[1]": {"system": "mouse primary fibroblasts", "test": "Toxicity of 4-PBA concentration in culture", "assay_type": "cell-based", "conditions": "data not shown", "description": "(§1) The genotypes of the X-ALD patients included missense, nonsense, frame shift and deletion mutations and all of the main clinical phenotypes."}, "[2]": {"system": "human primary fibroblasts", "test": "Toxicity of 4-PBA concentration in culture", "assay_type": "cell-based", "conditions": "data not shown", "description": "as §1"}, "PPARα": {"system": "PPARα", "test": "Semi-quantitative RT-PCR in primary fibroblasts", "assay_type": "cell-based", "description": "In rodents PPARα expression is increased by peroxisomal proliferators. […] Thus, although the peroxisome proliferation response in mice may be, at least in part, through the documented PPARα pathway, the response in human cells seems to be through a newly discovered pathway that may involve Pex11α. […] This again indicates a newly discovered pathway for 4-PBA-induced peroxisome proliferation in humans and perhaps in rodents. AOX has been identified as the rate-limiting step in VLCFA β-oxidation.\nSemi-quantitative RT-PCR analysis. Total RNA from tissue culture cells (10^6-10^7 cells/sample) was isolated using TRizol Reagent™ (Life Technologies), treated with DNase I (100-200 units in 40 mM HCI, 10 mM NaCl, 6 mM MgCl2, pH 7.3), incubated at 37° C. for 30 min, extracted with phenol/chloroform, and precipitated with isopropanol. cDNA was generated using MMLV reverse transcriptase (RT) (Life Technologies). PCR was done in the linear range of amplification (determined for each primerpair-cDNA combination). For each cDNA sample, a ‘cocktail’ was prepared, containing PCR buffer (Promega), 200 µM of each DNTP, 1.5 mM MgCl2, 250 ng cDNA, 0.25 U of Taq polymerase (Promega) and […]. The ‘cocktail’ was divided into separate tubes containing cDNA specific primers.\nPrimers. The PCR primers used are listed below. […]"}, "X-ALD mice": {"system": "X-ALD mice", "test": "In vivo efficacy: VLCFA levels in brain and adrenal glands after dietary 4-PBA", "parameters": "species or system mouse", "description": "To measure the in vivo efficacy of 4-PBA, we supplemented mouse chow and water with 4-PBA.\nAMN and Addison-only. […] In vivo delivery of 4-PBA to X-ALD mice. 4-PBA was delivered to X-ALD mice in their regular chow and water. 4-PBA chow was prepared by B'OServ (Holton Industries, Frenchtown, N.J.). […] Brains and adrenal glands from normal LD and X-ALD/4-PBA mice were collected for VLCFA analysis as described.\n(§2) Biochemical measurements. […] For VLCFA measurements, total lipids were extracted, converted to methyl esters, purified by TLC and subjected to capillary GC analysis as described. Duplicate assays were set up independently and were assayed on different days. C24:0 β-oxidation activity of human and mouse fibroblasts and human lymphoblastoid cells was determined by measuring their capacity to degrade [1-^14C]-C24:0 fatty acid (American Radiolabeled Chemicals, St Louis, Mo.) to water-soluble products as described. Phytanic acid oxidation was measured as described. Cells were incubated with [2,3-^3H]-phytanic acid for 24 hours, and the release of ^3H-H2O to the aqueous medium was determined (activity in pmol/hr per mg protein)."}, "[3]": {"system": "human lymphoblastoid cells (EBV-transformed lymphocytes) derived from X-ALD patients", "test": "VLCFA (C24:0, C26:0) levels in cultured cells, capillary GC", "assay_type": "cell-based", "conditions": "for C26:0 Percent Correction: 5 mM 4PBA", "description": "as §1\nCell lines derived from X-ALD patients and X-ALD mice were grown in MEM (fibroblasts) or RPMI (ymphoblastoid cells) supplemented with fetal calf serum (10%), penicillin (100 U/ml), streptomycin (100 U/mi) and glutamine (2 mM). […] Cells in the second flask were grown without drug for the same length of time and served as controls. The media were changed every 3-4 days.\nas §2"}, "ALDP": {"system": "ALDP", "test": "ALDP stabilization, cytological immunofluorescence with anti-ALDP antibody", "assay_type": "cell-based", "conditions": "human X-ALD primary fibroblasts with destabilizing missense mutations (A626T, R660W); 5 mM 4-PBA up to 10 days; data not shown", "description": "Immunofluorescence and peroxisome counting. […] The anti-SKL (PTSI) antibody was a gift from S. Gould and the anti-Pex11α antibody was a gift from S. Mihalik. To count peroxisomes, we photographed immunofluorescence-stained cells after focusing on the cell nucleus, and determined the peroxisome number per cell with the aid of a colon counter after projecting the slides to enlarge the image."}, "ALDRP": {"system": "ALDRP", "test": "Western blot with densitometry relative to β-actin", "assay_type": "cell-based", "conditions": "normal mouse fibroblasts, after 10 days of exposure; data not shown", "description": "Open bars, untreated cells; hatched bars, treated cells.\nThese findings indicate that ALDP1 and ALDRP may occupy equivalent domains within the peroxisomal membrane. This would agree with the observation that ALDP and ALDRP are generally expressed in different cell types.\nWestern blot analysis. Tissue culture cells were scraped from tissue culture dishes using a policeman, into cold PBS solution and protease inhibitor cocktail (Boehringer). Samples were mixed (1:1) with 2× sample buffer. Total protein samples were fractionated by SDS-PAGE using a 7.5% gel using the method of Laemmlis'. […] Enhanced chemiluminescence (SuperSignal Substrate; Pierce, Rockford, Ill.) was used to detect bound antibody."}}, "note": "Where “and” joins values, the source holds several entries; their conditions need not be identical. Identical values can stand only once. Entries after “also recorded” stand apart in the source; their conditions may differ.", "data": [{"smiles": "O=C(O)CCCc1ccccc1", "note": "[4-PBA, 4-Phenyl butyrate]", "values": [{"measurement": "concentrations toxic for cells", "setting": "[1]", "value": "exceeding 7.5 mM"}, {"measurement": "concentrations toxic for cells", "setting": "[2]", "value": "exceeding 7.5 mM"}, {"measurement": "PPARα expression", "setting": "PPARα; human X-ALD fibroblasts, even after 10 days of treatment", "value": "unchanged"}, {"measurement": "PPARα expression", "setting": "PPARα; mouse X-ALD fibroblasts, as early as 2 days after treatment", "value": "increased"}, {"measurement": "adrenal gland VLCFA (C24:0 and C26:0) levels", "setting": "X-ALD mice; dietary 4-PBA for 4 weeks", "value": "substantial reduction"}, {"measurement": "brain VLCFA (C24:0 and C26:0) levels", "setting": "X-ALD mice; dietary 4-PBA for 4 weeks", "value": "substantial reduction"}, {"measurement": "correction of brain C24:0 level", "setting": "X-ALD mice; dietary 4-PBA for 6 weeks", "value": "complete correction; also recorded: complete normalization"}, {"measurement": "correction of brain C26:0 level", "setting": "X-ALD mice; dietary 4-PBA for 6 weeks", "value": "78% and 80%"}, {"measurement": "time of treatment until C24:0 and C26:0 levels were normalized", "setting": "[3]; 5 mM 4-PBA", "value": "≤ 10", "unit": "days"}, {"measurement": "C26:0 Percent Correction", "setting": "[3]; exposure 6 days", "value": 71, "unit": "%"}, {"measurement": "C26:0 Percent Correction", "setting": "[3]; exposure 10 days", "value": 90, "unit": "%"}, {"measurement": "detectable ALDP after treatment", "setting": "ALDP", "value": "did not result in detectable levels of ALDP"}, {"measurement": "ALDRP protein level", "setting": "ALDRP", "value": "not increased"}]}]}
